Measurements taken from patent US20240382537A1, “Genetically Modified Mycoplasma Bacteria Active Against Heterogenous Bacterial Biofilms” (priority 2021, published 2024).

Assays:
P. aeruginosa biofilm = assay: In vitro P. aeruginosa biofilm degradation assay (crystal violet); format: cell-based, Pseudomonas aeruginosa; conditions: for effect of the minimal killing concentration when cells are organized in a biofilm: antibiotic alone, P. aeruginosa clinical isolates
Protocol: In Vitro P. aeruginosa Biofilm Degradation Assay
M. pneumoniae spp. was grown in a T25 flask for three days with 5 ml of Hayflick media without antibiotics, and then the conditioned supernatant was filtered with 0.33 μm sterile syringe filters. P. aeruginosa strains were grown overnight in Erlenmeyer flasks (20 μl stock in 20 ml TSB) at 37° C. on shaking 600 rpm, and then diluted to an OD600 of 0.15 in TSB. Diluted Pseudomonas culture (100 μl) was then added in triplicates to sterile 96-well polystyrene microtiter plates. Cells were incubated statically overnight at 25°° C. to allow for biofilm formation. Biofilms were washed with PBS the following day to remove non-adherent cells and TSB media. Treatment of 50-100 µl of M. pneumoniae-conditioned filtered medium were added to the wells (using at least triplicates), and plates were incubated at 37° C. for 4 h. After incubation, wells were washed with PBS, stained with 150 μl of 0.1% (w/v) crystal violet for 10 min and washed three times with PBS. The dye was solubilized by addition of 100 μl of 95% (v/v) ethanol and incubated for 10 min. Absorbance was measured at 595 nm using a TECAN plate reader.

P. aeruginosa cells = assay: Effect of antibiotic concentrations on growth of P. aeruginosa isolates in suspension; format: cell-based, Pseudomonas aeruginosa; conditions: clinical isolates SAT290 and C117, suspension
Text: (§1) We studied a possible increase of the biofilm dispersal activity of CV8_HA strain, that expresses dispersal agents against P. aeruginosa, when combined with antibiotics. We used two different clinical isolates of P. aeruginosa (SAT290 and C117) and two different standard of care antibiotics (Ceftazidime-Avibactam and Piperacillin-Tazobactam). First, we studied the effect of different concentrations of these antibiotics on the growth of P. aeruginosa isolates and M. pneumoniae. […] Therefore, we studied the degradation of the biofilm of the P. aeruginosa clinical isolates when exposed to the supernatant of CV8_HA strains with or without these antibiotics (FIG. 8).

M. pneumoniae = assay: Effect of antibiotics on growth of M. pneumoniae; format: cell-based, Mycoplasma pneumoniae
Text: as §1

Substance	effect of the minimal killing concentration when cells are organized in a biofilm (P. aeruginosa biofilm)	antibiotic activity on biofilm when combined with CV8_HA supernatant (P. aeruginosa biofilm; clinical isolate SAT290 (FIG. 8A))	minimal concentration that kills P. aeruginosa cells when grown in suspension (P. aeruginosa cells) [µg/mL]	susceptibility of M. pneumoniae to the antibiotic (M. pneumoniae)
Ceftazidime-Avibactam	has no effect	becomes active on the biofilm	> 15	naturally resistant
Piperacillin-Tazobactam	has no effect		> 5	naturally resistant
